Series [1] relates to T cells. As to the kind of experiment: T cell activation by anti-CD3/CD28 DynaBeads, CD25/CD69/4-1BB expression by flow cytometry. From the text: The inventors pre-treated T cells with dasatinib or DMSO for 5 hr, then activated T cells with anti-CD3/CD28 DynaBeads for 24 hr, and then detected the expression of activation molecules CD25, CD69 and 4-1BB by flow cytometry.
In order to verify the tolerance of the LCK-T316I mutation to the function of dasatinib, the inventors carried out experimental verification on the T cells with LCK edited with different sgRNA lengths prepared in Example 2.
The inventors isolated CD3-positive T cells from human peripheral blood and divided them into eleven portions for processing, with 1e5 cells in each portion. One of these portions was not treated with dasatinib, anti-CD3/CD28 DynaBeads were not added to activate TCR, and this portion was as the initial control group; the other 10 portions of cells were pretreated with different concentrations of dasatinib for 4 hr, ten concentrations ranging from 0 nM to 50 nM were set, and then anti-CD3/CD28 DynaBeads were added to activate TCR signals overnight. On the second day, the expression of CD25, CD69 and 4-1BB activation signals was detected, and the activation of TCR signals was detected. Two replicates were set for each group of experiments.
The inventors divided each of the three groups of edited cells into 6 sub-groups and cultured them in a flat-bottomed 96-well plate. Each sub-group contained two technical replicates, and each well contained 0.15×10^6 cells. […] Subsequently, the cells were cultured for 18 hr. The activated T cell surface marker molecule 4-1BB was detected by using the APC-labeled murine IgG monoclonal antibody, and the activated T cell surface marker molecule CD25 was detected by using the PE-labeled murine IgG monoclonal antibody, and the activated T cell surface marker CD69 was detected by FITC-labeled murine IgG monoclonal antibody.
The inventors conducted research using two groups of T cells (CBE3 control group and Km edited group) in the above experiments. The experimental procedure is basically the same as the above-mentioned experiment (FIG. 32B). The two groups of edited cells were each divided into 7 sub-groups and cultured them in a flat-bottomed 96-well plate. Each sub-group contained two technical replicates, and each well contained 0.15×10^6 cells. […] Subsequently, the cells were cultured for 18 hr. The activated T cell surface marker molecule 4-1BB was detected by using the APC-labeled murine IgG monoclonal antibody, and the activated T cell surface marker molecule CD25 was detected by using the PE-labeled murine IgG monoclonal antibody, and the activated T cell surface marker CD69 was detected by FITC-labeled murine IgG monoclonal antibody.

Series [2] concerns normal human T lymphocytes. The conditions noted are these: in vitro; cited from earlier work.
Series [3] deals with anti-BCMA CAR-T cells. As to the kind of experiment: Luciferase killing assay of anti-BCMA CAR-T on luciferase-positive target cells. The conditions noted are these: CBE3 and CBE3+sg12 groups, 100 nM dasatinib 12 hr, effector-to-target 1:1, 24 hr.
Series [4] has as its system anti-CD19-CAR-T cells. As to the kind of experiment: CD107a translocation of anti-CD19-CAR-T cells co-incubated with target cells. In kind it is cell-based, human. The conditions noted are these: LCK-sgRNA16 editing group (43% T316I), 100 nM dasatinib 12 hr, Nalm6 target cells. From the text:
First, the inventors edited the prepared anti-CD19 CAR-T by electroporation with the CBE3 protein, the RNP complex of CBE3 and LCK-sgRNA12, and the RNP complex of CBE3 and LCK-sgRNA16 respectively, to achieve three different editing treatments.

Series [5] deals with CD5-UCAR-T cells. The conditions noted are these: reduced to 0 nM, Jurkat 4 hr.
Experimental: Subsequently, they were treated overnight with dasatinib at a concentration of 50 nM or 25 nM, respectively. […] After 4 hr of co-incubation, CD107a release in CD8 and CAR double-positive cells was detected.
After 4 hr of co-incubation, CD107a release from CD8/CAR double-positive cells was detected.
Series [6] deals with anti-BCMA-CAR-T cells. As to the kind of experiment: CD107a translocation of anti-BCMA-CAR-T cells co-incubated with target cells. In kind it is cell-based, human. The conditions noted are these: LCK-sgRNA16 editing group (42% T316I), 100 nM dasatinib 12 hr.
Series [7] relates to CD19/BCMA bispecific CAR-T cells. As to the kind of experiment: CD107a translocation of CD19/BCMA bispecific CAR-T cells. Type of series: cell-based, human. The conditions noted are these: CAR-T cells with LCK-T316I mutation, 100 nM dasatinib 12 hr, U266B1 and Raji. From the text: The inventors edited the prepared CD19/BCMA dual-target CAR-T by electroporation with the CBE3 protein, the RNP complexes (18 nt and 21 nt) of CBE3 and LCK-sgRNA12, and the RNP complexes (18 nt and 21 nt) of CBE3 and LCK-sgRNA16 respectively, to achieve three different groups of editing treatments. […] These target cells include U266B1 (BCMA positive), Raji (CD19 positive), K562 (negative control), allogeneic T cells (negative control) and blank Buffer control (negative control).

The conditions of series [8]: cited from earlier work.
The mark [9] stands for this setting: T cells, 20 nM dasatinib 4 hr, beads overnight.
[10] abbreviates: T cells, 25 nM dasatinib 4 hr, beads overnight.
Setting [11] is: T cells, dasatinib increased to 50 nM, beads overnight.

Where two headings read alike, the source gives them in different places.

For the molecule `Cc1nc(Nc2ncc(C(=O)Nc3c(C)cccc3Cl)s2)cc(N2CCN(CCO)CC2)n1` [dasatinib], the “concentration that effectively inhibits T cell activation in vitro (minimum)” value in series [1] (T cells, 0-50 nM gradient) was 25 nM. The “percentage of CD25 and 4-1BB double-positive cells” value in series [1] (setting [9]) is listed as 2.09%. For the same molecule, the figures for the “percentage of CD25 and CD69 double-positive cells” value in series [1] (setting [9]), in series [1] (setting [10]) and in series [1] (setting [11]) were 8.75%, 1.06% and “below 1%”, respectively. The “percentage of double-positive cells (FIG. 20B, CD25 and 4-1BB as indicators)” value in series [1] (setting [10]) is on record as 0.26%; in series [1] (setting [11]), “below 1%”. Besides, in series [1] (T cells, 5 hr pretreatment, beads 24 hr), the “concentration sufficient to inhibit activation of TCR signaling” value is recorded as 100 nM. In series [1] (sgRNA16 group (about 50% edited), 100 nM dasatinib, anti-CD3/CD28 beads), the “reduction of expression of activation molecules versus no dasatinib” value is 20%-50%. In addition, the “viability of T cells” value in series [2] is listed as “will not affect the viability of T cells”. In addition, in series [3], the “cytotoxicity of anti-BCMA CAR-T (luciferase value of RPMI-8226)” value is on record as “significantly inhibited”. Besides, the “positive CD107a translocation in CD8 and CAR double-positive cells” value in series [4] was 50%; in series [6] (RPMI-8226), 44.7%; in series [6] (U266B1), 39.6%. Further, the “positive CD107a release” value in series [5] (CD5-CART, repeat, 50 nM pretreatment) is reported as 12.1%; in series [5] (sg12 control CD5-UCART, 50 nM pretreatment overnight) it was 12%; in series [5] (sg16 (LCK-T316I) CD5-UCART, 50 nM pretreatment), 16%. Besides, in series [7], the CD107a positive rate result is “above 50%”. Moreover, in series [8], the half-life in vivo was 3 to 4 h.

The values above are taken from US20240173353A1, “UNIVERSAL CHIMERIC ANTIGEN RECEPTOR T-CELL AND APPLICATION THEREOF” (SHANGHAI IASO BIOTECHNOLOGY CO., LTD., priority 2021, published 2024).
